According to US7794965B2, “Method of identifying modulators of PP2A methylase” (Signum Biosciences, Inc., priority 2002, dated 2010):
Where two headings read alike, the source gives them in different places.

Experiments:
cultured human neurons = details: Merrick, 1997; cited from earlier work
[1] = target: PP2A phosphatase activity (Homo sapiens, UniProt P67775); details: cited from earlier work
methylation of PP2A = methylation of PP2A (Homo sapiens, UniProt P67775); details: cited from earlier work
[2] = system: PP2A methylation in SH-SY5Y neuroblastoma cells; test: PP2A methylation in cultured SH-SY5Y cells, western blotting with antibodies 6A3 (total) and 4D9 (methylated); assay type: cell-based; details: homocysteine 0, 25, 50, 100, and 200 mM, three hours
Method: SH-SY5Y cells were propagated in a 1:1 mixture of Eagle's Minimum Essential Medium and Ham's F12 medium supplemented with 10% Fetal Bovine Serum, Penicillin (100 units/ml)/Streptomycin ([…]) and 2 mM L-Glutamine. The flasks were incubated at 37° C. (5% CO2). Media was changed every 4-6 days until the cells were confluent. On confluency, cells were treated with 25-200 mM homocysteine for 3 hours. […] Each membrane was blocked for 1 hr in 5% milk, followed by an hour incubation in antibodies, 6A3 (1:50) and 4D9 (1:25) which recognize total and methylated PP2A, respectively.
Inhibition of PP2A methylation by homocysteine was determined in cultured cells. Total PP2A and methylated PP2A was determined by western blotting in SH-SY5Y neuroblastoma cells. Homocysteine was added to confluent SH-SY5Y cells to concentrations of […]. Three hours after adding homocysteine the cells were harvested into cold PBS, mixed with SDS sample buffer, and then analyzed by SDS-PAGE and western blotting. To determine total PP2A, the blots were probed with monoclonal antibody 6A3, which recognizes total PP2A. To determine methylated PP2A the blots were probed with monoclonal antibody 4D9, which recognizes methylated but not unmethylated PP2A.

tau = details: for CP13 tau phosphorylation, ratio methionine-enriched / not enriched / PHF1 tau phosphorylation, ratio methionine-enriched / not enriched / TG5 total tau, ratio methionine-enriched / not enriched: B6, B12
Text: (§1) Male C57BL/J6 mice were obtained from the Jackson Laboratories (Bar Harbor, Me.) at 4 weeks of age. Mice were fed on a vitamin sufficient or a vitamin deficient diet for 9 weeks. All of the vitamin-sufficient diets contained folate, vitamin B6, and vitamin B12. All of the vitamin deficient diets lacked these vitamins. […] Another group was fed a vitamin deficient diet that contained basal levels of methionine (Harlan Teklad TD00428). The same was true for mice on the vitamin-sufficient diet. One group was fed a diet enriched for methionine (Harlan Teklad TD98002) and another was fed standard rodent chow 5001 c (Lab Diets). The mice were allowed free access to both food and water.
Mice brains were homogenized in 10 times volume/weight buffer containing:
62.5 mM Tris-HCl, pH 6.8, 10% (w/v) glycerol, 5% (v/v) [3-mercaptoethanol, 2.3% (w/v) SDS, 100 nM okadaic acid (OA), 1 mM phenylmethylsulfonyl fluoride, and 1 mM EDTA. This is a modified version of the buffer reported by Planel et al. [Planel, 2001 #54]. The homogenates were boiled for 5 mins and then centrifuged for 15 mins at 4° C. in a Fisher micro-centrifuge model 235A. The supernatant was then diluted 1:2 in SDS-sample buffer and loaded on a 12.5% percent SDS-PAGE gel. Gels were run at 200 V, transferred onto PVDF membrane at 100 V for 1 hr. Each membrane was blocked for 1 hr in 5% milk, followed by overnight incubation in antibodies, CP13 (1:200) and PHF1 (1:500) which recognize phosphoserine 202 and phosphoserine 396/404 respectively [Greenberg, 1992 #55; Otvos, 1994 #59] and TG5 (1:1000), which recognizes a phosphorylation independent epitope on tau [Jicha, 1997 #56]. The following day, membranes were washed 5× for 5 mins each with TBS containing tween (TBST) and then incubated with goat anti-mouse IgG horseradish peroxidase coupled secondary antibody, diluted 1:25,000 in 5% milk prepared in TBS, for 1 hr. Following the secondary antibody incubation, the membranes were washed 5× for 10 mins in TBST and developed with ECL plus (Amersham). Signal intensities of X-ray film exposures for each membrane were quantified by scanning densitometry using NIH Image.
Mice were fed on diets containing or deficient in folate, vitamin B6, and vitamin B12 as described above. Tau phosphorylation was determined in the mice by SDS-PAGE and western blotting using the procedures described above. The western blots were probed using three different tau-specific monoclonal antibodies, as discussed above.
(§2) The effects of methionine enrichment were determined either in the presence or absence of a deficiency for folate, vitamin B6, and vitamin B12.
Ratios are given for values obtained from mice fed diets enriched with methionine divided by values obtained from mice fed diets not enriched for methionine.
Feeding and assays were performed as described above. Hcy, total plasma homocysteine; SAM and SAH values measured in brain homogenates. CP13 and PHF1, tau phosphorylation and TG5, total tau (see data below) body, brain, and heart weights (see data in examples above).

[3] = for Hcy, total plasma homocysteine, ratio methionine-enriched / not enriched / SAH in brain homogenates, ratio methionine-enriched / not enriched / SAM in brain homogenates, ratio methionine-enriched / not enriched: B6, B12
Text: as §1
SAM and SAH levels were measured by high performance liquid chromatography (HPLC) according to the method described by Fu et al. in “Interrelations between plasma homocysteine and intracellular S-adenosylhomocysteine;” Biochem Biophys Res Commun 271: 47-53 (2000), which is incorporated herein by reference in its entirety particularly in parts pertinent to HPLC assays of SAM and SAH.
Samples of mouse brain were weighed and homogenized in two times weight/volume of 0.5 HCIO4. Samples were centrifuged at 12,500 g for 5 min and the supernatant was filtered through a 0.22 mm membrane. Aliquots of 25 ml were injected and run on a hypersil […] particle size, c18 (ODS), 250×4.6 mm (Phenomenex) column with an isocratic elution at 1.3 ml/min. The mobile phase consisted of 0.10 mM sodium acetate, 2.4 mM heptanesulfonic acid, 4.2% acetonitrile, and 50 mM sodium perchlorate. The pH was adjusted to 3.5 with 70% perchloric acid.
Standards were run at five different concentrations: 10,000, 5,000, 2,000, 1,000, and 500 pM for SAM, and 10,000, 5,000, 1,000, 100, and 50 μM for SAH. Linear curves, obtained from the SAM and SAH standards, were used to calculate concentrations of SAM and SAH in the brain homogenates.
Homocysteine was measured by HPLC in serum samples reduced with tri-n-butylphosphine.
Serum was prepared from whole blood, which was allowed to clot for 30 min on ice and then centrifuged. Samples were aliquoted, snap frozen and stored at −80° C. for analysis. For analysis, 150 ml of serum was thawed and reduced in a mixture containing 50 ml of 0.1 M potassium borate, 2 mM EDTA, pH 9.5, 0.2 mM mercaptopropionylglycine, and 20 ml of 100 ml/I of tri-n-butylphosphine in dimethylformamide. The reduction was allowed to proceed for 30 min on ice after which samples were mixed with 125 ml of 0.6 M perchloric acid containing 1 mM EDTA and allowed to react at room temperature for 10 min, and then centrifuged at 15500 g for 10 min. 100 ml was withdrawn from the middle of the supernatant and mixed with 200 ml of 0.2M potassium borate, pH 10.5, containing 5 mM EDTA. 100 ml of 1.0 gm Ammonium 7-fluorobenzo-2-oxa-1,3-diazole-4-sulphonate/I.OL 0.2M potassium borate, pH 9.5, was added and the mixture incubated at 60° C. for 60 min. Samples were cooled and then analyzed using HPLC. 10 ml of derivatized sample was used for each injection. Buffer A (0.1 M acetate buffer, pH 4.0, containing 20 ml/I methanol) and Buffer B (0.1 M acetate buffer, pH 6.0, containing 50 ml/I methanol) were run at a flow rate of 1.0 ml/min from A to B over 12.5 min then 2.5 min of B, a 3.0 min gradient back to A and 2.0 min A before next injection. A standard was also analyzed to quantify values of homocysteine. Mercaptopropionylglycine was added to the reduction buffer as an internal standard to monitor any potential loss during reduction.
Mice were fed on diets containing or deficient in folate, vitamin B6 and B12 as set out above. SAM, SAH and Hcy were determined as described above.
as §2

[4] = excess methionine added to vitamin-deficient diets

Chain of PP2A phosphatase activity (P67775 whole entry): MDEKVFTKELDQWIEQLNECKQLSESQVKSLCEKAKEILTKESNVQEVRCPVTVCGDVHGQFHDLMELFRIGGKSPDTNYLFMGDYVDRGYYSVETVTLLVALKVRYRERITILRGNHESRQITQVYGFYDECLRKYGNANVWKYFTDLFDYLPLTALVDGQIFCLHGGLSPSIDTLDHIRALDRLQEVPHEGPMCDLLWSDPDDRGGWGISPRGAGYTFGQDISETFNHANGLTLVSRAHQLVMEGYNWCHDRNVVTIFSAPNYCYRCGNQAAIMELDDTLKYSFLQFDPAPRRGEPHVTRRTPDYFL
Chain of methylation of PP2A (P67775 whole entry): as above

Question: Which results are given for `C=C1[C@@H](O)[C@@H]2O[C@]3(CC[C@H](/C=C/[C@@H](C)[C@@H]4CC(C)=C[C@@]5(O[C@H](C[C@@](C)(O)C(=O)O)CC[C@H]5O)O4)O3)CC[C@H]2O[C@@H]1[C@@H](O)C[C@H](C)[C@H]1O[C@@]2(CCCCO2)CC[C@H]1C` [Okadaic acid]?
Answer: effect on tau and microtubules in cultured human neurons (cultured human neurons): tau hyperphosphorylation, reduced binding of tau to MTs, MT depolymerization, and axonal degeneration; inhibition of PP2A phosphatase activity [1]: potent inhibitor; inhibition of methylation of PP2A (methylation of PP2A): potent inhibitor

Question: With `N[C@@H](CCS)C(=O)O` [homocysteine] as the compound, how does the “Total PP2A (antibody 6A3)” value [2] read?
Answer: Its value is “remained much the same”.

Question: What about the “level of methylated PP2A (antibody 4D9)” value [2] of the same compound?
Answer: The value was “declined dramatically”.

Question: Which results are given for `CSCC[C@H](N)C(=O)O` [methionine]?
Answer: CP13 tau phosphorylation, ratio methionine-enriched / not enriched (tau; diets with folate): 1.1; PHF1 tau phosphorylation, ratio methionine-enriched / not enriched (tau; diets with folate): 1.2; TG5 total tau, ratio methionine-enriched / not enriched (tau; diets with folate): 1.2; CP13 tau phosphorylation, ratio methionine-enriched / not enriched (tau; diets without folate): 1; PHF1 tau phosphorylation, ratio methionine-enriched / not enriched (tau; diets without folate): 0.9; TG5 total tau, ratio methionine-enriched / not enriched (tau; diets without folate): 1; effect on tau hyperphosphorylation (tau; [4]): did not have a sizeable significant effect; Hcy, total plasma homocysteine, ratio methionine-enriched / not enriched ([3]; diets with folate): 1.9; SAH in brain homogenates, ratio methionine-enriched / not enriched ([3]; diets with folate): 0.8; SAM in brain homogenates, ratio methionine-enriched / not enriched ([3]; diets with folate): 0.9; Hcy, total plasma homocysteine, ratio methionine-enriched / not enriched ([3]; diets without folate): 0.9; SAH in brain homogenates, ratio methionine-enriched / not enriched ([3]; diets without folate): 1.1; SAM in brain homogenates, ratio methionine-enriched / not enriched ([3]; diets without folate): 1.2; change in plasma Hcy ([3]; excess methionine added to the normal diet): approximately two-fold increase; effect on methylation metabolism [3, 4]: did not have a sizeable significant effect
